This is an account of results in US20060210478A1, “Steady state perfusion methods” (priority 2005, published 2006).

Experiment [1] concerns domestic pig. The following applies: pig with 80-90% LCX stenosis, 0.05 mmol/kg i.v.
Text: A domestic pig (approx 50 kg B.W.) is anesthetized and intubated. The animal undergoes surgical intervention to partially occlude the distal portion of the left circumflex coronary artery (LCX). A calibrated angioplasty balloon is delivered by catheter, guided by X-ray fluoroscopy, from the femoral artery to the heart. It is advanced into the left circumflex coronary artery and inflated to create the equivalent of an 80-90% stenosis. The balloon catheter will remain inflated and at a constant inflation pressure for the duration of the imaging procedure, to simulate a static lesion and stenosis in the coronary artery.
The pig is then transported to the MRI suite and remains under general anesthesia and intubated for the duration of the imaging examination. Sufficient MRI scout scans to plan the myocardial imaging are acquired. Then 0.05 mmol/kg of MS-325 is administered as a single intraveneous injection. Enough time (ca. 10 minutes) for the agent to achieve equilibrium in the blood elapses before imaging commences.
Perfusion imaging is performed using a saturation-recovery gradient echo methods in order to sensitize the MRI to the lowered T1 of the imaging agent. Three short-axis slices (7.5 mm, with 7.5 mm slice separations) are acquired, so that 16 of the 17 AHA/ACC myocardial segments can be visualized. […]
The test system of experiment [2] is domestic pig. The following applies: pig with 80-90% LCX stenosis; 0.05 mmol/kg i.v.; 0.25 mg/kg/min adenosine; confirmed by fluorescent microspheres post-mortem.
Text: (§1) A domestic pig (approx 60 kg B.W.) is anesthetized and intubated. The animal undergoes surgical intervention to partially occlude the distal portion of the left circumflex coronary artery (LCX). A calibrated angioplasty balloon is delivered by catheter, guided by X-ray fluoroscopy, from the femoral artery to the heart. It is advanced into the Left Circumflex coronary artery and inflated to create the equivalent of an 80-90% stenosis. The balloon catheter will remain inflated and at a constant inflation pressure for the duration of the imaging procedure, to simulate a static lesion and stenosis in the coronary artery.
The pig is then transported to the MRI suite and remains under general anesthesia and intubated for the duration of the imaging examination. Sufficient MRI scout scans to plan the myocardial imaging are aquired. […] Enough time (ca. 10 minutes) for the agent to achieve equilibrium in the blood elapses before perfusion imaging commences.
Perfusion imaging is performed using a gradient echo method in order to sensitize the MRI to the lowered T1 of the imaging agent (TR=3.2 ms, FA=12°). Three short-axis 10 mm slices are acquired, so that 16 of the 17 AHA/ACC myocardial segments can be visualized. In this implementation, cardiac-triggering is employed to control heart motion and breathing is suspended to eliminate diaphragmatic motion. […]
Experiment [3] concerns domestic pig. The following applies: pig with 80-90% LCX stenosis; 0.05 mmol/kg i.v.; 0.25 mg/kg/min adenosine; confirmed by fluorescent microspheres post-mortem. The source holds these as a separate data set.
Text: as §1
The pig is then transported to the MRI suite and remains under general anesthesia and intubated for the duration of the imaging examination. Sufficient MRI scout scans to plan the myocardial imaging are aquired. 0.05 mmol/kg of MS-325 is administered as a single intraveneous injection. Enough time (ca. 10 minutes) for the agent to achieve equilibrium in the blood elapses before perfusion imaging.
Perfusion imaging is performed using a gradient echo method in order to sensitize the MRI to the lowered T1 of the imaging agent (TR=5.0 ms, FA=12°). Three 10 mm short-axis slices are acquired, so that 16 of the 17 AHA/ACC myocardial segments can be visualized. […]

Turning to `O=C([O-])CN(CCN(CC(=O)[O-])C[C@H](COP(=O)([O-])OC1CCC(c2ccccc2)(c2ccccc2)CC1)N(CC(=O)[O-])CC(=O)[O-])CC(=O)[O-].[Gd+3].[H+].[H+].[H+]` [MS-325], in the experiment with domestic pig [1] (after 5 minutes of 0.25 mg/kg/min adenosine infusion), the “Corresponding image during stress” value is on record as “a greater degree of negative contrast with the remaining myocardial wall”. Moreover, in the experiment with domestic pig [1] (imaging ca. 10 minutes after injection, before adenosine), the “Analysis of MR images (perfusion imaging at rest)” value was “a suspicious hypo-intense region in the anterior wall of the left ventrical”. The “Analysis of MR images during vasodilatory stress” value in the experiment on domestic pig [2] is reported as “a hypo-intense region in the wall of the left ventricle”. Moreover, in the experiment on domestic pig [3], the “Analysis of MR images during adenosine stress” value is recorded as “a hypo-intense region in the myocardial wall”.
